Legend:
Cavia porcellus [1] = species: Cavia porcellus; assay: Shift in the activity was determined; ns= no significant shift observed with 1000 nM CTAP used as a mu antagonist; format: functional
Cavia porcellus [2] = species: Cavia porcellus; assay: Ability to inhibit the electrically evoked contraction of the guinea pig ileum(GPI) of the Compound was determined; format: functional
[3] = molecular target: Kappa-type opioid receptor (Cavia porcellus, UniProt P41144); assay: Binding affinity towards Opioid receptor kappa 1 in guinea pig brain using [3H]U-69593 as radioligand.
Chain of Kappa-type opioid receptor (P41144 whole entry): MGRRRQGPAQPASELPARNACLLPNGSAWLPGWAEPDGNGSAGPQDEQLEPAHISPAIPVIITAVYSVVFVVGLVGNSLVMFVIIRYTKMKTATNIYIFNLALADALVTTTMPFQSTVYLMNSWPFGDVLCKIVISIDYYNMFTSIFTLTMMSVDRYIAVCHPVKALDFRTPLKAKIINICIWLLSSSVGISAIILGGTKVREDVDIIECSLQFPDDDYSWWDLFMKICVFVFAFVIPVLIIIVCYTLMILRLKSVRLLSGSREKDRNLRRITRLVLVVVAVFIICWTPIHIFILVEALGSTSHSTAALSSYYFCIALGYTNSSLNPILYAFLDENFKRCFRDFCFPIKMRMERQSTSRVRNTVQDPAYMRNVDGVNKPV

Mu-type opioid receptor = Mu-type opioid receptor (Cavia porcellus, UniProt P97266); assay: Binding affinity towards Opioid receptor mu 1 in guinea pig brain using [3H]DAMGO as radioligand.
Chain of Mu-type opioid receptor (P97266 whole entry): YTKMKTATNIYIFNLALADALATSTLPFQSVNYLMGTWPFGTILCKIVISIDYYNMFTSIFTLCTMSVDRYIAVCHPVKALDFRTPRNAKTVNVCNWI

[4] = Compound was evaluated for its receptor binding affinity at [3H]cyclo[D-pen2,p-cl-Phe4,D-Pen5](delta receptor) to opioid receptor in guinea pig brain

| Structure (SMILES) | IC50 (Cavia porcellus [1]) | IC50 (Cavia porcellus [2]) | IC50 [3] | IC50 (Mu-type opioid receptor) | IC50 [4] |
| --- | --- | --- | --- | --- | --- |
| CC[C@H](C)[C@H](NC(=O)[C@H](CCCN=C(N)N)NC(=O)[C@H](CCCN=C(N)N)NC(=O)[C@H](CC(C)C)NC(=O)[C@H](Cc1ccccc1)NC(=O)[C@@H](C)NC(=O)CNC(=O)[C@@H](N)Cc1ccc(O)cc1)C(=O)N[C@@H](CCCN=C(N)N)C(=O)N1CCC[C@H]1C(=O)N[C@@H](CCCCN)C(N)=O | Not Active | 8.1 nM | 0.76 nM | 260 nM | – |
| CC[C@H](C)[C@H](NC(=O)[C@H](CCCN=C(N)N)NC(=O)[C@H](CCCN=C(N)N)NC(=O)[C@H](CC(C)C)NC(=O)[C@H](Cc1ccccc1)NC(=O)[C@H](C)NC(=O)CNC(=O)[C@@H](N)Cc1ccc(O)cc1)C(=O)N[C@@H](CCCN=C(N)N)C(=O)N1CCC[C@H]1C(=O)N[C@@H](CCCCN)C(N)=O | Not Active | 1.7 nM | 1.1 nM | 210 nM | – |
| CC[C@H](C)[C@H](NC(=O)[C@H](CCCNC(=N)N)NC(=O)[C@H](CCCNC(=N)N)NC(=O)[C@H](CC(C)C)NC(=O)[C@H](Cc1ccccc1)NC(=O)CNC(=O)CNC(=O)[C@@H](N)Cc1ccc(O)cc1)C(=O)N[C@@H](CCCNC(=N)N)C(=O)N1CCC[C@H]1C(=O)N[C@@H](CCCCN)C(N)=O | Not Active | – | – | – | 25.5 nM |

Source: ChEMBL document CHEMBL1128236, “Highly kappa receptor-selective dynorphin A analogues with modifications in position 3 of dynorphin A(1-11)-NH2” (J Med Chem, 1995)
